Data: ChEMBL document CHEMBL1201862, “PubChem BioAssay data set” (2004)
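Protocol summary: plate cells (96-well), add compound at 5 concentrations, incubate 48 h, interpolate endpoints linearly. Abbreviation: GI50, concentration required for 50% inhibition of growth.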 Activity calls are given as the source filed them. Cut-off read from the data, not from the text of the source: active = GI50 up to about 1.1 µM and inactive = higher.

Key:
Assay in all cases: NCI anticancer screen, dose series, 48 h
[1] = tested on: OVCAR-8
[2] = tested on: K562
[3] = tested on: OVCAR-4
[4] = tested on: MCF7
[5] = tested on: UACC-62
[6] = tested on: PC-3
[7] = tested on: U-251
[8] = tested on: BT-549
[9] = tested on: MDA-N
[10] = tested on: SF-268
[11] = tested on: Malme-3M
[12] = tested on: SK-MEL-5
[13] = tested on: RPMI-8226
[14] = tested on: M14
[15] = tested on: SNB-75
[16] = tested on: A549
[17] = tested on: DU-145
[18] = tested on: NCI-H23
[19] = tested on: ACHN
[20] = tested on: SK-OV-3
[21] = tested on: HCT-116
[22] = tested on: SN12C
[23] = tested on: T47D
[24] = tested on: SR
[25] = tested on: HOP-62
[26] = tested on: NCI/ADR-RES
[27] = tested on: UO-31
[28] = tested on: RXF 393
[29] = tested on: NCI-H522
[30] = tested on: HT-29
[31] = tested on: SK-MEL-2
[32] = tested on: OVCAR-3
[33] = tested on: SW-620
[34] = tested on: EKVX
[35] = tested on: SNB-19
[36] = tested on: HOP-92
[37] = tested on: MDA-MB-231
[38] = tested on: HCC 2998
[39] = tested on: SF-539
[40] = tested on: NCI-H226
[41] = tested on: A498
[42] = tested on: SK-MEL-28
[43] = tested on: 786-0
[44] = tested on: HL-60
[45] = tested on: OVCAR-5
[46] = tested on: HCT-15
[47] = tested on: CCRF-CEM
[48] = tested on: NCI-H460
[49] = tested on: COLO 205
[50] = tested on: MDA-MB-435
[51] = tested on: LOX IMVI
[52] = tested on: MOLT-4
[53] = tested on: Hs-578T
[54] = tested on: KM12
[55] = tested on: SF-295
[56] = tested on: CAKI-1
[57] = tested on: UACC-257
[58] = tested on: TK-10
[59] = tested on: IGROV-1

SMILES: COc1ccccc1NC(=S)N/N=C/c1ccccn1
- GI50 [1]: 0.131 µM (active)
- GI50 [2]: < 0.0187 µM (active)
- GI50 [3]: 0.619 µM (active)
- GI50 [4]: 0.0504 µM (active)
- GI50 [5]: 0.466 µM (active)
- GI50 [6]: 0.054 µM (active)
- GI50 [7]: 0.12 µM (active)
- GI50 [8]: 1.77 µM (inactive)
- GI50 [9]: 1.29 µM (inactive)
- GI50 [10]: 0.191 µM (active)
- GI50 [11]: 0.193 µM (active)
- GI50 [12]: 0.252 µM (active)
- GI50 [13]: 0.0658 µM (active)
- GI50 [14]: 0.0692 µM (active)
- GI50 [15]: 3.37 µM (inactive)
- GI50 [16]: 0.564 µM (active)
- GI50 [17]: 1.88 µM (inactive)
- GI50 [18]: 0.0746 µM (active)
- GI50 [19]: 0.11 µM (active)
- GI50 [20]: 0.446 µM (active)
- GI50 [21]: < 0.0204 µM (active)
- GI50 [22]: 0.74 µM (active)
- GI50 [23]: 0.0867 µM (active)
- GI50 [24]: 0.71 µM (active)
- GI50 [25]: 0.247 µM (active)
- GI50 [26]: 0.0253 µM (active)
- GI50 [27]: 0.296 µM (active)
- GI50 [28]: 10.9 µM (inactive)
- GI50 [29]: < 0.0157 µM (active)
- GI50 [30]: < 0.01 µM (active)
- GI50 [31]: 2.54 µM (inactive)
- GI50 [32]: < 0.015 µM (active)
- GI50 [33]: 0.124 µM (active)
- GI50 [34]: 0.293 µM (active)
- GI50 [35]: 4.17 µM (inactive)
- GI50 [36]: 1.26 µM (inactive)
- GI50 [37]: < 0.0166 µM (active)
- GI50 [38]: 2.37 µM (inactive)
- GI50 [39]: 0.91 µM (active)
- GI50 [40]: 2.12 µM (inactive)
- GI50 [41]: 0.255 µM (active)
- GI50 [42]: 1.56 µM (inactive)
- GI50 [43]: 0.157 µM (active)
- GI50 [44]: 0.0214 µM (active)
- GI50 [45]: 0.288 µM (active)
- GI50 [46]: 0.227 µM
- GI50 [47]: 0.276 µM (active)
- GI50 [48]: 0.495 µM (active)
- GI50 [49]: 0.0352 µM (active)
- GI50 [50]: 1.61 µM (inactive)
- GI50 [51]: 0.0927 µM (active)
- GI50 [52]: 0.0115 µM (active)
- GI50 [53]: 14.3 µM (inactive)
- GI50 [54]: 0.597 µM (active)
- GI50 [55]: 0.621 µM (active)
- GI50 [56]: 0.0817 µM (active)
- GI50 [57]: < 0.0318 µM (active)
- GI50 [58]: 0.367 µM (active)

SMILES: COc1ccc2[nH]cc(C=C3C(=O)NC(=S)NC3=O)c2c1
- GI50 [1]: 36.6 µM (inactive)
- GI50 [2]: > 100 µM (inactive)
- GI50 [3]: > 100 µM (inactive)
- GI50 [4]: > 100 µM (inactive)
- GI50 [5]: > 100 µM (inactive)
- GI50 [6]: > 100 µM (inactive)
- GI50 [7]: 24.2 µM (inactive)
- GI50 [8]: 53 µM (inactive)
- GI50 [9]: > 100 µM (inactive)
- GI50 [10]: 19.8 µM (inactive)
- GI50 [11]: > 100 µM (inactive)
- GI50 [12]: > 100 µM (inactive)
- GI50 [14]: > 100 µM (inactive)
- GI50 [15]: 23.1 µM (inactive)
- GI50 [16]: > 100 µM (inactive)
- GI50 [17]: > 100 µM (inactive)
- GI50 [18]: 31.2 µM (inactive)
- GI50 [19]: > 100 µM (inactive)
- GI50 [20]: 52.2 µM (inactive)
- GI50 [21]: > 100 µM (inactive)
- GI50 [22]: > 100 µM (inactive)
- GI50 [59]: > 100 µM (inactive)
- GI50 [23]: > 100 µM (inactive)
- GI50 [24]: 30.1 µM (inactive)
- GI50 [25]: 45.9 µM (inactive)
- GI50 [26]: > 100 µM (inactive)
- GI50 [27]: > 100 µM (inactive)
- GI50 [28]: 30.3 µM (inactive)
- GI50 [29]: > 100 µM (inactive)
- GI50 [30]: > 100 µM (inactive)
- GI50 [31]: 92.3 µM (inactive)
- GI50 [32]: > 100 µM (inactive)
- GI50 [33]: > 100 µM (inactive)
- GI50 [34]: > 100 µM (inactive)
- GI50 [35]: 62.1 µM (inactive)
- GI50 [36]: 73.6 µM (inactive)
- GI50 [37]: 48.6 µM (inactive)
- GI50 [38]: > 100 µM (inactive)
- GI50 [39]: > 100 µM (inactive)
- GI50 [40]: > 100 µM (inactive)
- GI50 [41]: > 100 µM (inactive)
- GI50 [42]: > 100 µM (inactive)
- GI50 [43]: 31.6 µM (inactive)
- GI50 [44]: > 100 µM (inactive)
- GI50 [45]: > 100 µM (inactive)
- GI50 [46]: > 100 µM
- GI50 [47]: 71.8 µM (inactive)
- GI50 [48]: > 100 µM (inactive)
- GI50 [49]: > 100 µM (inactive)
- GI50 [50]: > 100 µM (inactive)
- GI50 [51]: > 100 µM (inactive)
- GI50 [52]: 62.4 µM (inactive)
- GI50 [53]: 45.8 µM (inactive)
- GI50 [54]: > 100 µM (inactive)
- GI50 [55]: 94.8 µM (inactive)
- GI50 [56]: > 100 µM (inactive)
- GI50 [57]: > 100 µM (inactive)
- GI50 [58]: 38.9 µM (inactive)
